Consider seven compounds from BindingDB's records for doi:10.1016/j.bmcl.2003.09.076 (Eli Lilly, 2003).

Some results are limits rather than exact numbers.

The Ki is the dissociation constant of the complex between target and ligand, obtained from inhibition or displacement. By IC50 is commonly meant the concentration at which inhibition is half-maximal. Higher therefore signals weaker potency in that assay.

The nature of test [1]: Binding affinity towards Protease using PNA assay […].
Test [2] can be described thus: Cytotoxic activity in human liver Huh-7 cells.
Test [3] in a line: Inhibitory activity against Protease using replicon assay […] at 50 uM concentration. In general terms: In antiviral work, replicon cells carry a viral genome segment that copies itself.

On to `CCCC(NC(=O)[C@@H]1[C@H]2CCC[C@H]2CN1C(=O)[C@@H](NC(=O)[C@H](O)C(C)C)C(C)C)C(=O)C(=O)NC1CC1` (stereo partly drawn) [(1S,3aR,6aS)-2-[(S)-2-((R)-2-Hydroxy-3-methyl-butyrylamino)-3-methyl-butyryl]-octahydro-cyclopenta[c]pyrrole-1-carboxylic acid (1-cyclopropylaminooxalyl-butyl)-amide], for which the affinity in test [1] corresponds to a Ki of 14.5 µM. Further, in test [2], the IC50 is over 100 µM.

In test [1], `CCCC(NC(=O)[C@@H]1[C@H]2CCC[C@H]2CN1C(=O)[C@@H](NC(=O)[C@H](O)C(C)C)C(C)C)C(=O)C(=O)Nc1ccccc1` (stereo partly drawn) [(1S,3aR,6aS)-2-[(S)-2-((R)-2-Hydroxy-3-methyl-butyrylamino)-3-methyl-butyryl]-octahydro-cyclopenta[c]pyrrole-1-carboxylic acid (1-phenylaminooxalyl-butyl)-amide] showed a Ki of 1.8 µM. In addition, the IC50 in test [3] was over 100 µM.

In test [1], `CCCC(NC(=O)[C@@H]1[C@H]2CCC(F)(F)[C@H]2CN1C(=O)[C@@H](NC(=O)[C@H](O)C(C)C)C(C)C)C(=O)C(=O)NC1CC1` (stereo partly drawn) [(1S,3aR,6aS)-4,4-Difluoro-2-[(S)-2-((R)-2-hydroxy-3-methyl-butyrylamino)-3-methyl-butyryl]-octahydro-cyclopenta[c]pyrrole-1-carboxylic acid (1-cyclopropylaminooxalyl-butyl)-amide] displayed a Ki of 16.5 µM.

`CCCC(NC(=O)[C@@H]1[C@H]2CCC(F)(F)[C@H]2CN1C(=O)[C@@H](NC(=O)OC(C)C)C(C)(C)C)C(=O)C(=O)N[C@@H](C)c1ccccc1` (stereo partly drawn) [((S)-1-{(1S,3aR,6aS)-4,4-Difluoro-1-[1-((S)-1-phenyl-ethylaminooxalyl)-butylcarbamoyl]-hexahydro-cyclopenta[c]pyrrole-2-carbonyl}-2,2-dimethyl-propyl)-carbamic acid isopropyl ester] came in with an inhibitory constant (Ki) in test [1] of 2.1 µM. Also, the IC50 in test [2] was over 100 µM.

As to `CCCC(NC(=O)[C@@H]1[C@H]2CCC(F)(F)[C@H]2CN1C(=O)[C@@H](NC(=O)OC(C)C)C(C)C)C(=O)C(=O)N[C@@H](C)c1ccccc1` (stereo partly drawn) [((S)-1-{(1S,3aR,6aS)-4,4-Difluoro-1-[1-((S)-1-phenyl-ethylaminooxalyl)-butylcarbamoyl]-hexahydro-cyclopenta[c]pyrrole-2-carbonyl}-2-methyl-propyl)-carbamic acid isopropyl ester], in test [1], the Ki came out at 6.7 µM. Besides, the IC50 in test [2] is over 100 µM.

With `CCCC(NC(=O)[C@@H]1[C@H]2CCC[C@H]2CN1C(=O)[C@@H](NC(=O)OC(C)C)C(C)C)C(=O)C(=O)N[C@@H](C)c1ccccc1` (stereo partly drawn) [((S)-2-Methyl-1-{(1S,3aR,6aS)-1-[1-((S)-1-phenyl-ethylaminooxalyl)-butylcarbamoyl]-hexahydro-cyclopenta[c]pyrrole-2-carbonyl}-propyl)-carbamic acid isopropyl ester], affinity in test [1] was put at a Ki of 1.91 µM. In test [2], this compound showed an IC50 of over 100 µM.

In test [1], `CCCC(NC(=O)[C@@H]1[C@H]2CCC[C@H]2CN1C(=O)[C@@H](NC(=O)OC(C)C)C(C)(C)C)C(=O)C(=O)Nc1ccccc1` (stereo partly drawn) [{(S)-2,2-Dimethyl-1-[(1S,3aR,6aS)-1-(1-phenylaminooxalyl-butylcarbamoyl)-hexahydro-cyclopenta[c]pyrrole-2-carbonyl]-propyl}-carbamic acid isopropyl ester] yielded a Ki of 0.82 µM.
